Where two headings read alike, the source gives them in different places. One block for each compound: values may come before it.
Tests used:
LacA [1] = test: oxidation monitored at […] nm, Lineweaver-Burk; assay type: biochemical, Cerrena unicolor; conditions: optimal pH 5.5 and temperature 80°C; 0.5–10 mM 2,6-DMP; apparent Km
LacA [2] = conditions: optimal pH 2.5 and temperature 60°C; 5–100 μM ABTS; apparent Km
LacA [3] = test: oxidation monitored at […] nm, Lineweaver-Burk; assay type: biochemical, Cerrena unicolor; conditions: optimal pH 4.0 and temperature 80°C; 0.5–5 mM guaiacol; apparent Km
[4] = biological target: Cerrena unicolor BBP6 laccase (LacA) (Cerrena unicolor BBP6); test: SEC; Superdex 200 Increase 10/300 GL, 10 mM phosphate buffer-140 mM NaCl (pH 7.4), 0.5 mL min^-1, room temperature; native mass compared with the subunit mass from SDS-PAGE

Km (LacA [1]): 3430 µM
Compound: COc1cccc(OC)c1O [2,6-DMP]

Km (LacA [2]): 49.1 µM
Compound: CCn1c(=NN=c2sc3cc(S(=O)(=O)O)ccc3n2CC)sc2cc(S(=O)(=O)O)ccc21 [ABTS]

Km (LacA [3]): 1240 µM
Compound: COc1ccccc1O [guaiacol]

stoichiometry N [4]: 2
Compound: Cerrena unicolor BBP6 laccase (LacA) (enzyme)

Source: article PMC6107187, “A novel homodimer laccase from Cerrena unicolor BBP6: Purification, characterization, and potential in dye decolorization and denim bleaching” (PLoS ONE, 2018)
